Source: patent US20070208166A1, “Tao Kinase Modulators And Method Of Use” (Exelixis, Inc., priority 2003, published 2007)

What was measured:
Type in all cases: biochemical
[1] = target: T1, KIAA 1361 (baculovirus expressed human KIAA 1361 kinase domain 2-322) (Homo sapiens, UniProt Q7L7X3); assay: KIAA 1361 Luciferase-Coupled Chemiluminescent Kinase assay (LCCA); settings: 2 μM ATP, 10 μM MBP, 12 nM KIAA 1361, 2 hours; read-out: KIAA1361 inhibition IC50
T1 construct: human KIAA 1361 kinase domain 2-322; made in house
T1 sequence (Q7L7X3 2-322): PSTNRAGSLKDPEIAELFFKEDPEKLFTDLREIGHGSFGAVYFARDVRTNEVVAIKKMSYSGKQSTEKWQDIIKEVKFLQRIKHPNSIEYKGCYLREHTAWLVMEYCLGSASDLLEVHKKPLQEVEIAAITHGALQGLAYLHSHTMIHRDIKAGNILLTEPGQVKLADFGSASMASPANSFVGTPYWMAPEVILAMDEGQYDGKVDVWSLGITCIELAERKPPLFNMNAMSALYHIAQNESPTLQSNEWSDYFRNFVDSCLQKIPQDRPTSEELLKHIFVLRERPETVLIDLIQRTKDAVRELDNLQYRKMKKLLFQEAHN
Experimental: (§1) Kinase activity and compound inhibition are investigated using one or more of the three assay formats described below. The ATP concentrations for each assay are selected to be close to the Michaelis-Menten constant (KM) for each individual kinase. Dose-response experiments are performed at 10 different inhibitor concentrations in a 384-well plate format. The data are fitted to four-parameter equation (2) below; where Y is the observed signal, X is the inhibitor concentration, Min is the background signal in the absence of enzyme (0% enzyme activity), Max is the signal in the absence of inhibitor (100% enzyme activity), IC50 is the inhibitor concentration at 50% enzyme inhibition and H represents the empirical Hill's slope to measure the cooperativity. Typically H is close to unity. Y=Min+(Max−Min)/(1+(X/IC50)ˆH) Equation (2) KIAA 1361 Assay: […]
(§2) KIAA 1361 biochemical activity was assessed using a Luciferase-Coupled Chemiluminescent Kinase assay (LCCA) format. Kinase activity was measured as the percent ATP remaining following the kinase reaction. Remaining ATP was detected by luciferase-luciferin-coupled chemiluminescence. Specifically, the reaction was initiated by mixing test compounds, 2 μM ATP, 10 μM MBP and 12 nM KIAA 1361 (baculovirus expressed human KIAA 1361 kinase domain 2-322) in a 20 uL assay buffer (20 mM Tris-HCL pH7.5, 10 mM MgCl2, 0.02% Triton X-100, 100 mM DTT, 2 mM MnCl2). The mixture is incubated at ambient temperature for 2 hours after which 20 uL luciferase-luciferin mix is added and the chemiluminescent signal read using a Wallac Victor^2 reader. The luciferase-luciferin mix consists of 50 mM HEPES, pH 7.8, 8.5 ug/mL oxalic acid (pH 7.8), 5 (or 50) mM DTT, 0.4% Triton X-100, 0.25 mg/mL coenzyme A, 63 uM AMP, 28 ug/mL luciferin and 40,000 units of light/mL luciferase.

JIK = target: T2, JIK (Homo sapiens, UniProt Q9H2K8); assay: JIK Luciferase-Coupled Chemiluminescent Kinase assay (LCCA); settings: 2 μM ATP, 10 μM MBP, 6 nM JIK, 2 hours; read-out: JIK inhibition IC50
T2 construct: 6 nM JIK (baculovirus expressed human KIAA 1361 kinase domain2-318); made in house
T2 sequence (Q9H2K8 2-318): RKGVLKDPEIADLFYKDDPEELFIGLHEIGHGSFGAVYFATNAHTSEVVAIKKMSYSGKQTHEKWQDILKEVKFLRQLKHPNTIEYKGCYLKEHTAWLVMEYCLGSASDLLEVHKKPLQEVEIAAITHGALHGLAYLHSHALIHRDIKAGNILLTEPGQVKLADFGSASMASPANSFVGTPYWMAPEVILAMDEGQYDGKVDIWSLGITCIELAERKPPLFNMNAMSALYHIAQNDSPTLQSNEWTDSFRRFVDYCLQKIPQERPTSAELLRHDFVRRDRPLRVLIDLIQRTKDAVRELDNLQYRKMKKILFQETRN
Experimental: as §1
as §2, with “JIK biochemical” for “KIAA 1361 biochemical”, “and 6” for “and 12”, “nM JIK” for “nM KIAA 1361”, “kinase domain2-318)” for “kinase domain 2-322)”

TAO = target: T3, TAO (Homo sapiens, UniProt Q9UL54); assay: TAO Luciferase-Coupled Chemiluminescent Kinase assay (LCCA); settings: 2 μM ATP, 10 μM MBP, 12 nM TAO, 2 hours; read-out: TAO inhibition IC50
T3 sequence (Q9UL54 1-1235): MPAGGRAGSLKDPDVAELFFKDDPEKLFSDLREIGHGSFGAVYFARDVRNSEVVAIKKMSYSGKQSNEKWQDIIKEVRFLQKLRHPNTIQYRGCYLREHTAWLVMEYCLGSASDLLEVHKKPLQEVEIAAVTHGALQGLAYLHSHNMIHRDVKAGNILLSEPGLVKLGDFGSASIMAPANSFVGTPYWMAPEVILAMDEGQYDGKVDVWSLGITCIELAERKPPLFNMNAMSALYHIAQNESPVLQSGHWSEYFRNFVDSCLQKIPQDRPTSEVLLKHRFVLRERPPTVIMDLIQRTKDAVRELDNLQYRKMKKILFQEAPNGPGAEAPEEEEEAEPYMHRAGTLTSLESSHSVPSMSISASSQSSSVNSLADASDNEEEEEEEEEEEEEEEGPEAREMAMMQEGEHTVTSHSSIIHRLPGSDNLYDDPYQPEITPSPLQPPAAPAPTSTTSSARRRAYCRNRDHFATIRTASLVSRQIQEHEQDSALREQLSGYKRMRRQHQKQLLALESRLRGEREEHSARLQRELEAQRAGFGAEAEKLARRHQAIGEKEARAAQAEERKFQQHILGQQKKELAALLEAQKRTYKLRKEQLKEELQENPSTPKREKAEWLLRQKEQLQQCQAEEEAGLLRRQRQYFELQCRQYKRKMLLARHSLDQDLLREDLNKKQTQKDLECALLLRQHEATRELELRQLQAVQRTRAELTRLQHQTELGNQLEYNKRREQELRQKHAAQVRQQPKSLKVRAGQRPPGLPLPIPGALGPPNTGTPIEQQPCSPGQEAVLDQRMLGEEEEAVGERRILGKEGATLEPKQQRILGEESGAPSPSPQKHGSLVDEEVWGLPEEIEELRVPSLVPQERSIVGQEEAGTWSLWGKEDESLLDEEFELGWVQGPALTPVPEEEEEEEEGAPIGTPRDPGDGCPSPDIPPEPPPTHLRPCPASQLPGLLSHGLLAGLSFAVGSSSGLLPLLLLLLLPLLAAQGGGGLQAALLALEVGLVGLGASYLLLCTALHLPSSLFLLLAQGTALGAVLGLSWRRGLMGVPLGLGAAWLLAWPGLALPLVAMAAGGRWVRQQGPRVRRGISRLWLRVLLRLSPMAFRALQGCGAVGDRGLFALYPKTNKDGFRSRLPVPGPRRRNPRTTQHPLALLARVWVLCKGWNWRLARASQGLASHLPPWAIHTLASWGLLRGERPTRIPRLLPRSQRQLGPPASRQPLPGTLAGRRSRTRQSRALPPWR
Experimental: as §1
as §2, with “TAO biochemical” for “KIAA 1361 biochemical”, “nM TAO” for “nM KIAA 1361”, “mM […],” for “mM HEPES,”, “[…]” for “0.25 mg/mL”

| IC50 [1] [µM] | IC50 (JIK) [µM] | IC50 (TAO) [µM] | SMILES |
| --- | --- | --- | --- |
| 0.05 to 0.5 | 0.05 to 0.5 | 0.05 to 0.5 | CCc1ccc(-c2ccc(C(=O)NCC(=O)NCc3ccccc3C)cc2)cc1 [Entry 74, 4′-ethyl-N-(2-{[(2-methylphenyl)methyl]amino}-2-oxoethyl)biphenyl-4-carboxamide] |
| < 0.05 | < 0.05 | 0.05 to 0.5 | O=C(COc1ccc(-c2nccc(-c3ccccn3)n2)cc1)NCc1ccc(Cl)c(Cl)c1 [Entry 38, N-[(3,4-dichlorophenyl)methyl]-2-{[4-(4-pyridin-2-ylpyrimidin-2-yl)phenyl]oxy]acetamide] |
| > 5 | > 5 | > 5 | CCc1ccc(-c2ccc(C(=O)NCC(=O)N3CCN(c4ccccc4)CC3)cc2)cc1 [Entry 68, 4′-ethyl-N-[2-oxo-2-(4-phenylpiperazin-1-yl)ethyl]biphenyl-4-carboxamide] |
| 0.5 to 5 | 0.5 to 5 | > 5 | CC(C)CC(NC(=O)c1ccc(-c2ccccc2)cc1)C(=O)NC1CCCc2ccccc21 (stereo not drawn) [Entry 32, N-{3-methyl-1-[(1,2,3,4-tetrahydronaphthalen-1-ylamino)carbonyl]butyl}biphenyl-4-carboxamide] |
| > 5 | 0.5 to 5 | > 5 | CCc1ccc(-c2ccc(C(=O)NCC(=O)NC3CN(C(=O)OC(C)(C)C)Cc4ccccc43)cc2)cc1 (stereo not drawn) [Entry 95, 1,1-dimethylethyl 4-({N-[(4′-ethylbiphenyl-4-yl)carbonyl]glycyl}amino)-3,4-dihydroisoquinoline-2(1H)-carboxylate] |
| 0.05 to 0.5 | 0.05 to 0.5 | 0.5 to 5 | CCCCCOc1ccc(C(=O)NC(C)C(=O)NC2CCc3ccccc3C2)cc1 (stereo not drawn) [Entry 9, N-[1-methyl-2-oxo-2-(1,2,3,4-tetrahydronaphthalen-2-ylamino)ethyl]-4-(pentyloxy)benzamide] |
| > 5 | > 5 | > 5 | O=C(CNCc1ccc(-c2ccccc2)cc1)NC1CCCc2ccccc21 (stereo not drawn) [Entry 69, N˜2˜-(biphenyl-4-ylmethyl)-N-(1,2,3,4-tetrahydronaphthalen-1-yl)glycinamide] |
| < 0.05 | < 0.05 | 0.05 to 0.5 | CCCCCOc1ccc(C(=O)NCC(=O)NC2CCCc3ccccc32)cc1 (stereo not drawn) [Entry 1, N-[2-oxo-2-(1,2,3,4-tetrahydronaphthalen-1-ylamino)ethyl]-4-(pentyloxy)benzamide] |

The next lines start with the compound.

| SMILES | IC50 [1] [µM] | IC50 (JIK) [µM] | IC50 (TAO) [µM] |
| --- | --- | --- | --- |
| CCOCCCNC(=O)c1ccc(C(=O)NCC2COc3ccccc3O2)cc1N (stereo not drawn) [Entry 62, 2-amino-N-˜4˜-(2,3-dihydro-1,4-benzodioxin-2-ylmethyl)-N˜1˜-[3-(ethyloxy)propyl]benzene-1,4-dicarboxamide] | > 5 | > 5 | > 5 |
| O=C(CC(NC(=O)c1ccccc1)c1ccccc1)Nc1nc2ccc(O)cc2s1 (stereo not drawn) [Entry 97, N-{3-[(6-hydroxy-1,3-benzothiazol-2-yl)amino]-3-oxo-1-phenylpropyl)benzamide] | > 5 | > 5 | > 5 |
| O=C(COc1ccc(OCc2ccccc2)cc1)NCC(=O)NC1CCCc2ccccc21 (stereo not drawn) [Entry 2, N˜2˜-[({4-[(phenylmethyl)oxy]phenyl}oxy)acetyl]-N-(1,2,3,4-tetrahydronaphthalen-1-yl)glycinamide] | 0.05 to 0.5 | < 0.05 | 0.05 to 0.5 |
| O=C(NC(C(=O)NC1CCCc2ccccc21)c1cccnc1)c1ccc(/N=N/c2ccccc2)cc1 (stereo not drawn) [Entry 26, N-[2-oxo-1-pyridin-3-yl-2-(1,2,3,4-tetrahydronaphthalen-1-ylamino)ethyl]-4-[(E)-phenyldiazenyl]benzamide] | 0.5 to 5 | 0.05 to 0.5 | 0.5 to 5 |
| O=C(NCC1COc2ccccc2O1)c1ccc2c(c1)NC(=O)c1ccccc1N2 (stereo not drawn) [Entry 42, N-(2,3-dihydro-1,4-benzodioxin-2-ylmethyl)-11-oxo-10,11-dihydro-5H-dibenzo[b,e][1,4]diazepine-8-carboxamide] | 0.05 to 0.5 | < 0.05 | 0.05 to 0.5 |
